Test results taken from PMC2649430 (Neuropharmacology, 2008).
Positions count from the first letter of the chain named. Read-outs that look alike come from different tables or passages of the source.

Legend:
[1] = target: T1, E215Q mutant 5-HT3 receptor (Mus musculus, UniProt P23979, E215Q); details: no added MgCl2
T1 sequence (P23979 24-489 E215Q): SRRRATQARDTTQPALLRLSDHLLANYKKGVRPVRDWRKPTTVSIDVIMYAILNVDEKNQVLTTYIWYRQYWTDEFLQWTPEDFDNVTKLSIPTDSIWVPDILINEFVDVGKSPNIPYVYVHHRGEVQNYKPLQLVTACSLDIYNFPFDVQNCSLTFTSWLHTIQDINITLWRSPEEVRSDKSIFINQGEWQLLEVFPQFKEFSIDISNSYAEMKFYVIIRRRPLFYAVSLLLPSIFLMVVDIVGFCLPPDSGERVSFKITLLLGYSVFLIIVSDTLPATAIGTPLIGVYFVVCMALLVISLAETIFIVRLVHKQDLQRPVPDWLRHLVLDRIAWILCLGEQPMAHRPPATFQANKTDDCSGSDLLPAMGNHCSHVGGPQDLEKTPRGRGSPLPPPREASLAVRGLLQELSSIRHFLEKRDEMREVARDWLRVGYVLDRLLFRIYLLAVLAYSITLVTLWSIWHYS

[2] = target: T2, D204N mutant 5-HT3 receptor (Mus musculus, UniProt P23979, D204N); test: Whole-cell patch-clamp, D204N mutant in HEK 293 cells; assay type: cell-based; details: 1 mM 5-HT, n > 50
T2 sequence (P23979 24-489 D204N): T1 sequence (P23979 24-489 E215Q) with D181N, Q192E

[3] = target: T3, E213Q mutant 5-HT3 receptor (Mus musculus, UniProt P23979, E213Q); test: Whole-cell patch-clamp, 5-HT dose-response, E213Q mutant in HEK 293 cells; assay type: cell-based; details: for Hill slope: E213Q, no added MgCl2
T3 sequence (P23979 24-489 E213Q): T1 sequence (P23979 24-489 E215Q) with E190Q, Q192E

[4] = target: T4, V219L mutant 5-HT3 receptor (Mus musculus, UniProt P23979, V219L); test: Whole-cell patch-clamp, V219L mutant in HEK 293 cells; assay type: cell-based; details: 1 mM 5-HT, n > 50
T4 sequence (P23979 24-489 V219L): T1 sequence (P23979 24-489 E215Q) with Q192E, V196L

[5] = target: T5, E218Q mutant 5-HT3 receptor (Mus musculus, UniProt P23979, E218Q); assay type: cell-based; details: 1 mM 5-HT, n > 50
T5 sequence (P23979 24-489 E218Q): T1 sequence (P23979 24-489 E215Q) with Q192E, E195Q

[6] = target: T6, wild type 5-HT3 receptors (Mus musculus, UniProt P23979)
T6 sequence (P23979 24-489): T1 sequence (P23979 24-489 E215Q) with Q192E

[7] = target: T7, E277A/S297R mutant 5-HT3 receptor (Mus musculus, UniProt P23979, E277A/S297R); assay type: cell-based; details: no added MgCl2
T7 sequence (P23979 24-489 E277A/S297R): T1 sequence (P23979 24-489 E215Q) with Q192E, E254A, S274R

NCCc1c[nH]c2ccc(O)cc12 [5-HT, 5-hydroxytryptamine]
Hill slope ([1]; Ext. Ca2+ 0 mM): 2.98 ± 0.11 | Hill slope ([1]; Ext. Ca2+ 1 mM): 3.09 ± 0.39 | Hill slope ([1]; Ext. Ca2+ 3 mM): 2.54 ± 0.19 | Hill slope ([1]; Ext. Ca2+ 10 mM): 1.90 ± 0.24 | current response to 5-HT [2]: unable to elicit a response | rates of desensitisation, faster than wild type responses ([3]; E213Q versus wild type): ~4 fold | Hill slope ([3]; Ext. Ca2+ 0 mM): 2.45 ± 0.22 | Hill slope ([3]; Ext. Ca2+ 1 mM): 2.39 ± 0.16 | Hill slope ([3]; Ext. Ca2+ 3 mM): 2.42 ± 0.16 | Hill slope ([3]; Ext. Ca2+ 10 mM): 1.62 ± 0.19 | current response to 5-HT [4]: unable to elicit a response | current response to 5-HT [5]: unable to elicit a response | Hill slope ([6]; Ext. Ca2+ 0 mM, no added MgCl2): 2.39 ± 0.18 | Hill slope ([6]; Ext. Ca2+ 1 mM, no added MgCl2): 2.24 ± 0.19 | Hill slope ([6]; Ext. Ca2+ 3 mM, no added MgCl2): 2.08 ± 0.19 | Hill slope ([6]; Ext. Ca2+ 10 mM, no added MgCl2): 2.08 ± 0.26 | Hill slope ([6]; physiological conditions (1.0 mM CaCl2, 1.0 mM MgCl2), n = 23): 2.31 ± 0.25 | Hill slope ([7]; Ext. Ca2+ 0 mM): 2.04 ± 0.16 | Hill slope ([7]; Ext. Ca2+ 1 mM): 1.64 ± 0.25 | Hill slope ([7]; Ext. Ca2+ 3 mM): 1.62 ± 0.30 | I/I max ([7]; Ext. Ca2+ 3 mM): 0.99 ± 0.03 | Hill slope ([7]; Ext. Ca2+ 10 mM): 1.35 ± 0.18 | I/I max ([7]; Ext. Ca2+ 10 mM): 0.96 ± 0.02
